The target of assay [1] is GABA-A receptor; anion channel. Briefly: Binding affinity against the BZD site of the Gamma-aminobutyric acid A receptor in rat cerebral cortex using radioligand ([3H]flunitrazepam) assay in the absence of Gamma-aminobutyric acid. Format: tissue-based.
Assay [2] addresses T1, GABA-A receptor; anion channel (Rattus norvegicus) (UniProt O09028+P15431+P18506+P18508+P19969+P20236+P23574+P23576+P28471+P28473+P30191+P62813+P63079+P63138+Q91ZM7+Q9ES14). Nature of the assay: Ratio of IC50 (no GABA) to IC50 (GABA) was measured as GABA Shift (GS). It is filed as protein-complex assay.
A short description of assay [3]: Tested for skeletal muscle relaxant activity using horizontal screen assay. It is filed as functional.
For assay [4], the species on record is Rattus norvegicus. Briefly: Compound was tested for its ability to release (i.e., disinhibit) behavior that had been suppressed by punishment in rats (vogel conflict test). Format: functional. To be noted: read-out: MED.
Assay [5] addresses GABA-A receptor; anion channel. Briefly: Binding affinity against the BZD site of the Gamma-aminobutyric acid A receptor in rat cerebral cortex using radioligand ([3H]flunitrazepam) assay in the presence of Gamma-aminobutyric acid. It is filed as tissue-based.
For assay [6], the species on record is Rattus norvegicus. Briefly: The compound was tested for its ability to release (i.e., disinhibit) behavior that had been suppressed by punishment in rats (vogel conflict test). The following applies: read-out: MED. Format: functional.
The species named for a further assay is Mus sp. Briefly: Test ability to block the tonic-clonic component of seizures induced by metrazole in mice. It is filed as functional.
The species named for assay [7] is Rattus norvegicus. Nature of the assay: animal or person. To be noted: read-out: MED.
The species entered for assay [8] is Rattus norvegicus. Briefly: animal or person. The following applies: read-out: MED. The source holds these as a separate data set.
Assay [9] addresses T1, GABA-A receptor; anion channel (Rattus norvegicus). Nature of the assay: Relative binding in the presence and absence of GABA, (IC50-GABA /IC50+GABA). It is filed as protein-complex assay.
Another assay is filed under the species Mus musculus. Nature of the assay: Compound was tested for its ability to block the tonic-clonic component of seizures induced by metrazole in mice; Range = 10-30. Format: functional.
A short description of assay [10]: Tested for its interaction with ethanol by its ability to potentiate the effect of ethanol on sleep. It is filed as functional. The following applies: read-out: MED.

The structures appear in SMILES notation. Values joined by “and” are separate entries in the source; they are usually repeats but may differ in a detail not shown here. Equal entries are not always repeated.

As a reminder, the IC50 is the point on the concentration scale where inhibition reaches its midpoint. What is called ED50 is the dose at which the effect has come halfway, by size or by number of responders. `CN(C)c1ccc(NC(=O)C2=C(O)CCn3c2nc2ccccc23)cc1`: the half-maximal inhibitory concentration (IC50) in assay [1] was 270 nM; in assay [5], 210 nM. In [2], the GABA shift came out at 1.2. The ED50 in assay [3] was >30 mg/kg and 10 mg/kg. For the same compound, the minimal effective dose in the assay filed under Rattus norvegicus [4] came out at 10 mg/kg; in the assay listed under Rattus norvegicus [6], 3 mg/kg.
For `O=C(Nc1ccncc1F)C1=C(O)CCn2c1nc1ccccc12`, the IC50 came out at 53 nM in assay [1] and 20 nM in assay [5]. Moreover, in assay [2], the GABA shift was 2.6.
As to `Nc1ccc(NC(=O)C2=C(O)CCn3c2nc2ccccc23)cc1`, the IC50 in [1] stood at 13000 nM; in [5], 3400 nM. Besides, the GABA shift in assay [2] stood at 3.8.
Regarding `CN1C(=O)CN=C(c2ccccc2)c2cc(Cl)ccc21` [DIAZEPAM], the ED50 in the assay filed under Mus sp. was 0.11 mg/kg and 0.3 mg/kg. Moreover, the minimal effective dose in the assay listed under Rattus norvegicus [7] and in the assay listed under Rattus norvegicus [8] was 5 mg/kg in each case.
With `CN(C)c1ccc(NC(=O)C2=C3N(C)c4ccccc4N3CCC2=O)cc1`, the IC50 was determined as 29 nM in assay [1] and 16 nM in [5]. The GABA shift in [9] worked out at 1.8.
Consider `CN(C)c1ccccc1NC(=O)C1=C(O)CCn2c1nc1ccccc12`, for which the 50% effective dose (ED50) in the assay filed under Mus sp. was 4.9 mg/kg and 10 mg/kg. This compound also registered a concentration for half-maximal inhibition (IC50) in assay [1] of 10000 nM.
For the compound `O=C1CCN2C(=C1C(=O)Nc1ccccc1)Nc1ccccc12`, the median effective dose (ED50) in the assay filed under Mus musculus is 10 mg/kg; in the assay filed under Mus sp. (Mus sp., read-out: ED50), 5.2 mg/kg; in assay [3] it was >30 mg/kg and 10 mg/kg. Also, the minimal effective dose in the assay listed under Rattus norvegicus [4] was more than 10 mg/kg; in the assay filed under Rattus norvegicus [6] it was 10 mg/kg. In addition, in [9], the GABA shift is 1.5.
For the compound `CCN1C2=C(C(=O)Nc3ccncc3)C(=O)CCN2c2ccccc21`, the half-inhibitory concentration (IC50) amounted to 80 nM in [1] and 27 nM in assay [5]. Further, the GABA shift in assay [2] was determined as 3. The minimal effective dose in the assay filed under Rattus norvegicus [4] worked out at 3 mg/kg; in assay [10], 10 mg/kg; in the assay listed under Rattus norvegicus [6], 3 mg/kg.
On to `O=C(NCc1ccncc1)C1=C(O)CCn2c1nc1ccccc12`, for which, in the assay listed under Mus sp. (Mus sp., read-out: ED50), the median effective dose (ED50) is more than 10 mg/kg. For the same compound, the 50% inhibitory concentration (IC50) worked out at 65 nM in assay [1] and 69 nM in [5]. The GABA shift in assay [2] stood at 0.9.
On to `Cc1cc(N(C)C)ccc1NC(=O)C1=C(O)CCn2c1nc1ccccc12`, for which the figures for the IC50 in assay [1] and in [5] were 4000 nM and 1500 nM, respectively. Moreover, in assay [2], the GABA shift is 2.7.
For the compound `O=C(Nc1ccccn1)C1=C(O)CCn2c1nc1ccccc12`, the 50% effective dose (ED50) in the assay filed under Mus sp. was 10 mg/kg; in the assay listed under Mus sp. (Mus sp., read-out: ED50), 11.2 mg/kg. The half-maximal inhibitory concentration (IC50) came out at 59 nM in [1] and 36 nM in assay [5]. The GABA shift in assay [2] was determined as 1.7.
As for `CN(C)c1cccc(NC(=O)C2=C(O)CCn3c2nc2ccccc23)c1`, the values for the 50% inhibitory concentration (IC50) in assay [1] and in assay [5] were 37 nM and 25 nM, respectively. In assay [2], the GABA shift is 1.5.
For `CN(C)c1ccc(NC(=O)C2=C(O)CCn3c2nc2ccccc23)c(F)c1`, the IC50 is 120 nM in assay [1] and 87 nM in assay [5]. The GABA shift in assay [2] came to 1.4.
Regarding `O=C(Nc1ccncc1)C1=C(O)CCn2c1nc1ccccc12`, the ED50 in the assay filed under Mus sp. is 3.1 mg/kg and 7.8 mg/kg; in assay [3] (read-out: ED50), more than 30 mg/kg. Further, the IC50 is 160 nM in assay [1] and 78 nM in assay [5]. In addition, in [2], the GABA shift amounted to 2.1. For the same compound, the minimal effective dose in the assay filed under Rattus norvegicus [4] is 10 mg/kg; in assay [10], more than 60 mg/kg; in the assay listed under Rattus norvegicus [6], 3 mg/kg.
As for `O=C(NCc1cccnc1)C1=C(O)CCn2c1nc1ccccc12`, the median effective dose (ED50) in the assay filed under Mus sp. (Mus sp., read-out: ED50) was more than 10 mg/kg. Besides, the results for the 50% inhibitory concentration (IC50) in assay [1] and in assay [5] were 150 nM and 140 nM, respectively. Moreover, the GABA shift in assay [2] came to 1.1.
Turning to `O=C(Nc1ccc(C(=O)O)cc1)C1=C(O)CCn2c1nc1ccccc12`, in the assay filed under Mus sp., the ED50 is >30 mg/kg and 10 mg/kg. Also, the 50% inhibitory concentration (IC50) in [1] and in assay [5] was more than 10000 nM throughout.
In the case of `Nc1ccccc1NC(=O)C1=C(O)CCn2c1nc1ccccc12`, the concentration for half-maximal inhibition (IC50) in assay [1] was determined as 50 nM; in assay [5] it was 33 nM. Moreover, the GABA shift in [9] turned out to be 1.5.
For the compound `Cc1cnccc1NC(=O)C1=C(O)CCn2c1nc1ccccc12`, the ED50 in the assay listed under Mus sp. (Mus sp., read-out: ED50) is more than 10 mg/kg. The IC50 in assay [1] was found to be 7100 nM; in assay [5], 12000 nM. Also, the GABA shift in [2] came out at 0.6.
For `C[n+]1ccc(NC(=O)C2=C(O)CCn3c2nc2ccccc23)cc1`, the median effective dose (ED50) in the assay filed under Mus sp. (Mus sp., read-out: ED50) was more than 10 mg/kg. Besides, the figures for the 50% inhibitory concentration (IC50) in [1] and in [5] were 6300 nM and 3100 nM, respectively. Moreover, the GABA shift in assay [2] turned out to be 2.
The corresponding values for `O=C(Nc1cnccn1)C1=C(O)CCn2c1nc1ccccc12` are more than 10 mg/kg, 360 nM, 400 nM and 0.9.
For the compound `O=C(Nc1ccnc(Cl)c1)C1=C(O)CCn2c1nc1ccccc12`, the ED50 in the assay filed under Mus sp. was 3.7 mg/kg and 10 mg/kg. The concentration for half-maximal inhibition (IC50) was 68 nM in assay [1] and 65 nM in assay [5]. Moreover, the GABA shift in [2] amounted to 1.1.
Consider `O=C(Nc1ccc(O)cc1)C1=C(O)CCn2c1nc1ccccc12`, for which, in the assay filed under Mus sp., the median effective dose (ED50) was >30 mg/kg and 10 mg/kg. For the same compound, the IC50 in [1] was found to be 46 nM; in assay [5], 31 nM. Further, in assay [9], the GABA shift amounted to 1.5.
With `O=C(Nc1ccncn1)C1=C(O)CCn2c1nc1ccccc12`, the ED50 is 10 mg/kg in the assay listed under Mus sp. and more than 10 mg/kg in the assay filed under Mus sp. (Mus sp., read-out: ED50). In addition, the results for the IC50 in [1] and in assay [5] were 480 nM and 370 nM, respectively. Moreover, the GABA shift in assay [2] is 1.3.
In the case of `O=C(Nc1ncccn1)C1=C(O)CCn2c1nc1ccccc12`, the figures for the 50% inhibitory concentration (IC50) in assay [1] and in assay [5] were 54 nM and 50 nM, respectively. The GABA shift in assay [2] was determined as 1.1.
As for `O=C(Nc1cccnc1)C1=C(O)CCn2c1nc1ccccc12`, the figures for the IC50 in [1] and in assay [5] were 51 nM and 48 nM, respectively. Besides, the GABA shift in assay [2] was found to be 1.1.
As to `O=C(Nc1ccncc1)c1c(O)ccn2c1nc1ccccc12`, the ED50 in the assay filed under Mus sp. (Mus sp., read-out: ED50) was more than 10 mg/kg. For the same compound, the results for the IC50 in [1] and in [5] were 260 nM and 150 nM, respectively. Also, in assay [2], the GABA shift is 1.7.
For `O=C(Nc1ccncc1Cl)C1=C(O)CCn2c1nc1ccccc12`, the IC50 in [1] turned out to be 220 nM; in assay [5] it was 100 nM. Besides, the GABA shift in [2] is 2.2.

These data come from ChEMBL document CHEMBL1149939, “Potential anxiolytic agents. 2. Improvement of oral efficacy for the pyrido[1,2-a]benzimidazole (PBI) class of GABA-A receptor modulators” (Bioorg Med Chem Lett, 1996).
